# Experiments:
# [1] = tested on: HCT-116 colon cancer cell lines; assay: Invasion Assay using Matrigel, HCT-116; type: cell-based, Human; settings: HCT-116, Matrigel, 24 hours treatment, vs DMSO
# Description: To evaluate the metastasis inhibitory efficacy of the compounds of the present invention on HCT-116 colon cancer cell lines, an Invasion Assay using Matrigel was performed to assess the cells' invasion ability.
# First, Matrigel was thawed on ice in RPMI-1640 medium without FBS, then diluted with DMEM at a ratio of 1:20.
# The diluted Matrigel mixture was applied to the upper chamber at 100 μl per well, and 750 μl of RPMI-1640 without FBS was added to the lower chamber.
# The plates were then incubated at 37° C. for 1 hour to allow the Matrigel to solidify.
# After coating, the Matrigel mixture in the upper chamber was removed using a pipette, and the chamber was washed with RPMI without FBS.
# Human-derived colorectal cancer cell line HCT-116, obtained from the Korean Cell Bank, was cultured in RPMI-1640 medium containing 10% FBS. […]
# After staining was complete, any remaining cells in the upper chamber were removed. Finally, the infiltrated cells were observed under a microscope, photographed, and the degree of infiltration was analyzed.
# [2] = tested on: T cells isolated from mouse spleens; assay: T cell proliferation inhibition (CFSE flow cytometry, anti-CD3/anti-CD28 activation); type: cell-based, C57BL/6 mice; settings: mouse spleen T cells, CD3/CD28 activated, cultured three days
# Summary of the method: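 Splenic T cells from 7-week-old C57BL/6 mice were CFSE-labelled and seeded at 2×10^5/well. They were activated with anti-CD3/anti-CD28 ([…]) and treated with compound at […] in triplicate for 3 days at 37 °C. Proliferation was read by CFSE dilution on flow cytometry and expressed as % inhibition.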
# [3] = tested on: psoriasis-induced mice; assay: In vivo psoriasis model (Aldara cream, Imiquimod); design: species or system BALB/c mice
# Description: To verify the therapeutic effect of the compound according to the present invention on psoriasis, a psoriasis animal model was established as follows, and the compound according to the present invention was administered to evaluate the alleviation of skin lesions and changes in immune cell patterns.
# For the establishment of the psoriasis animal model, BALB/c mice (7 weeks old, female, 20 g) were purchased from HanabioTech Co., Ltd. and acclimatized to the rearing environment for one week.
# Subsequently, the hair on the mouse back was shaved using a hair removal device for the first time, and then completely shaved using a depilatory cream (Nicrin Cream (80% thioglycolic acid, II Dong Pharmaceutical)) for the second time. […]
# Body weights of mice in each group were measured on days 1, 4, and 8 after the start of injection and psoriasis induction. […]
# To evaluate the therapeutic effect in a psoriasis-induced mouse model, the PASI (Psoriasis Area and Severity Index) score was measured.
# The PASI score is based on three criteria: erythema, scaling, and skin thickness, each scored from 0 (none) to 4 (severe). […]
# Observations were conducted daily at the same time, and the same observer visually assessed each criterion and recorded the scores, with the results presented in FIG. 13. […]
# All samples were measured in duplicate, and the absorbance was measured at 450 nm using a microplate reader.
Compound,number of infiltrated cells (invasion) [1],Proliferation inhibition rate (%) ([2]; 10 nM),Proliferation inhibition rate (%) ([2]; 100 nM),Proliferation inhibition rate (%) ([2]; 1 μM),Proliferation inhibition rate (%) ([2]; 10 μM),Proliferation inhibition rate (%) ([2]; 30 μM),Proliferation inhibition rate (%) ([2]; 50 μM),efficacy in improving dermatological symptoms [3]
12-(4-Hydroxypiperazin-1-Yl)Dodecyl-N-(6-Aminopurazin-2-Yl)Carboxamide [Compound 10],reduction in the number of infiltrated cells,100.00,100.00,100.00,100.00,100.00,100.00,
"Nc1nc(NC(=O)CCCCCCCCCCCCN2CCN(CCO)CC2)nc2nc[nH]c12 [Compound 15, 12-[4-(2-Hydroxyethyl)Piperazin-1-Yl]Dodecyl-N-(6-Aminopurine-2-Yl)Carboxamide]",,,,,,,,excellent efficacy in improving dermatological symptoms

# Source: patent US20260183303A1, “PDK1 REGULATORY COMPOUND AND COMPOSITION CONTAINING THE SAME” (PROVIBIO CO., LTD., priority 2024, published 2026)
